Assay results reported in ChEMBL document CHEMBL1201862, “PubChem BioAssay data set” (2004).
Activity calls are given as the source filed them.

What was measured:
[1] = Counterscreen for IDE inhibitors: Luminescence-based cell-based high throughput dose response assay to identify compounds that are cytotoxic to HEK cells. [Related pubchem assays: 434962 (Primary screen (IDE inhibitors in singlicate)), 449730 (Counterscreen (Cytotoxicity in triplicate)), 435028 (Confirmation (IDE inhibitors in triplicate)) …; assay type: functional; conditions: HEK293
[2] = target: T1, Insulin-degrading enzyme (Homo sapiens, UniProt P14735); assay: Dose Response: Fluorescence polarization-based cell-based high throughput dose response assay for inhibitors of insulin-degrading enzyme (IDE). [Related pubchem assays: 434962 (Primary screen (IDE inhibitors in singlicate)), 449730 (Counterscreen (Cytotoxicity in triplicate)), 435028 (Confirmation (IDE inhibitors in triplicate)), 434984 (Summary …; assay type: functional
T1 sequence (P14735 whole entry): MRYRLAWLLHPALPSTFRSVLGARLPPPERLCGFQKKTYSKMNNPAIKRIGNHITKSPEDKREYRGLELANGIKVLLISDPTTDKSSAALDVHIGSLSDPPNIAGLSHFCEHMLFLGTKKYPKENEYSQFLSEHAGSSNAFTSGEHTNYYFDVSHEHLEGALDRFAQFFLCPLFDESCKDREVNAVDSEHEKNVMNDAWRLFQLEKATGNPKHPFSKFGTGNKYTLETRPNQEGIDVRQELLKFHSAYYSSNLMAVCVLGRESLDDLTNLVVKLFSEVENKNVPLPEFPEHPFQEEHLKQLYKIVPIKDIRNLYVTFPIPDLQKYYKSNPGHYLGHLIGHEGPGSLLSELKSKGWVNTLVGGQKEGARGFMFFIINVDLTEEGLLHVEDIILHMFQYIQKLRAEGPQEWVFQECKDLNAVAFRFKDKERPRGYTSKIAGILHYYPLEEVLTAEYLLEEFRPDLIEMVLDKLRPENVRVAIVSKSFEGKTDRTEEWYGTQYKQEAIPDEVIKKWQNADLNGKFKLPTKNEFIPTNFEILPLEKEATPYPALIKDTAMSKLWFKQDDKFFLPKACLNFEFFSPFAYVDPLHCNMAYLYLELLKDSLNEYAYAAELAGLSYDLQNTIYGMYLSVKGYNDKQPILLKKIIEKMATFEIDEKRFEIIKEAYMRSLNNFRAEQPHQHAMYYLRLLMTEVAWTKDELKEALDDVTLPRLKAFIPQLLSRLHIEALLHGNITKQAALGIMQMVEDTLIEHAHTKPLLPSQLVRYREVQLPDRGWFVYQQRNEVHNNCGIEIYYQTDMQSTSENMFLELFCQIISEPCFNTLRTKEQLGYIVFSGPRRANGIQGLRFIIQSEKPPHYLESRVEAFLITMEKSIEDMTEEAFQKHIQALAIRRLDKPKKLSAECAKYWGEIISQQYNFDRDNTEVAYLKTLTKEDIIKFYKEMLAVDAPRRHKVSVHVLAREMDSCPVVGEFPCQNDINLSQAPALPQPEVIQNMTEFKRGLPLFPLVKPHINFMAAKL

[3] = HEK-293T cell viability reduction – luminescence, B-cell screen hits, cytotoxicity control for BCR NF-kB inhibitor project, dose response (AID 489021); assay type: functional, cell-based;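 further: HEK-293T cells carrying an NF-kB luciferase reporter; cells exposed to compound for about 14 hours before viability readout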
[4] = target: Protein Wnt-3a (Mus musculus, UniProt P27467); assay: antagonism of Wnt3a pathway luciferase reporter – Wnt-LIGHT cells, luminescence, selectivity assay for Gli-SUFU antagonist project, dose response (AID 651570); assay type: functional; conditions: read-out: IC50_Mean;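 further: Wnt-LIGHT reporter cells stimulated with conditioned medium from Wnt3a-producing cells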
[5] = A Cell Based Secondary Assay To Explore Cytotoxicity of Compounds that Sensitize Mycobacterium Tuberculosis to Beta-Lactam Antibiotics.; assay type: functional
[6] = target: G2/mitotic-specific cyclin-B1 (Homo sapiens, UniProt P14635); assay: Counterscreen assay for inhibitors of Wee1 degradation: dose response cell-based assay to identify inhibitors of cyclin B degradation. [Related pubchem assays: 1410, 1321 ]; assay type: functional
[7] = target: Wee1-like protein kinase (Homo sapiens, UniProt P30291); assay: Dose Response Cell-based Assay for Inhibitors of Wee1 Degradation. [Related pubchem assays: 1410, 1321 ]; assay type: functional
[8] = target: Luciferin 4-monooxygenase (Photinus pyralis, UniProt P08659); assay: Counter Screen for Luciferase-based Assay Positives. [Related pubchem assays: 620, 618, 411 ]
[9] = Luminescence Cell-Based Dose Response HTS to Identify Inhibitors of 5'UTR Stem-Loop Driven Prion Protein mRNA Translation in H4 Neuroglioblastoma Cells. [Related pubchem assays: 1827 (Project Summary), 1813 (Primary HTS)]; assay type: functional
[10] = target: T2, Neuropeptide Y receptor type 2 (Homo sapiens, UniProt P49146); assay: IC50 for human NPY-Y2 blockade – cell-based, counter-screen for NPY-Y1 antagonist project, dose response (AID 1278); assay type: functional
T2 sequence (P49146 whole entry): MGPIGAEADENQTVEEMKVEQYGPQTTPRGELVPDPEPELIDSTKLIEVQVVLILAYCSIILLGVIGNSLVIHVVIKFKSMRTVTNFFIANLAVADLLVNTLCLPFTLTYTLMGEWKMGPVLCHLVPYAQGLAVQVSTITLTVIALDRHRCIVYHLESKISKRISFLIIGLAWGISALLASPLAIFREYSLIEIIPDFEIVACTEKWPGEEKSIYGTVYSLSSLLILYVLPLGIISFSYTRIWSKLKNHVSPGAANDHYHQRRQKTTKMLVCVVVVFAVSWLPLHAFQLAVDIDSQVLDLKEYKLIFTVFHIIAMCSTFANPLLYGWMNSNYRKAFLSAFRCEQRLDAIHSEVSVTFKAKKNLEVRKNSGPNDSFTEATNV

[11] = MIN6 cell viability loss – mouse insulinoma, cytotoxicity control, dose response (AID 2122); assay type: functional;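 further: confirmatory high-throughput counterscreen run to flag cytotoxic compounds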
[12] = test system: HT-1080; assay: HT1080 cell viability loss – fluorescence readout (AID 620); assay type: functional, cell-based; conditions: Homo sapiens
[13] = target: T3, Neuropeptide Y receptor type 1 (Homo sapiens, UniProt P25929); assay: IC50 of human NPY-Y1 blockers – cell-based, dose response (AID 1277); assay type: functional
T3 sequence (P25929 whole entry): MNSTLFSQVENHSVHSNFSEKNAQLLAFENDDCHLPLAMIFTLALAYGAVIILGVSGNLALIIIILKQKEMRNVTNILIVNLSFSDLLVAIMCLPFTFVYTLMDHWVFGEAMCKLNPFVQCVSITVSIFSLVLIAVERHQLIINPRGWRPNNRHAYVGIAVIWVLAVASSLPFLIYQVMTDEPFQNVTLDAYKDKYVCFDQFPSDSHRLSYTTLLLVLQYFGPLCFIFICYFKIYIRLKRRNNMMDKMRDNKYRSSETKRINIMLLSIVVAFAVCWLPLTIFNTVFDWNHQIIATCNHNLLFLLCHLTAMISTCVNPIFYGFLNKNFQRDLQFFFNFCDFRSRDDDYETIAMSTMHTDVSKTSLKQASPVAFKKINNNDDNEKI

[14] = alpha-synuclein stem-loop luciferase translation blockers – H4 neuroglioma cells, luminescence, confirmation (AID 1988); assay type: functional, cell-based
[15] = target: Galanin receptor type 2 (Homo sapiens, UniProt O43603); assay: Dose Response cell-based high-throughput screening assay to identify antagonists of galanin receptor 2 (GALR2). [Related pubchem assays: 828, 866 ]; assay type: functional
[16] = luciferase reporter signal suppression in cells – H4 neuroglioma cells, luminescence, dose response (AID 1990); assay type: functional, cell-based
[17] = decrease of insulin promoter-GFP reporter – imaging, high-content screening, mouse beta cells (AID 1628); assay type: functional; conditions: MIN6
[18] = target: Photoreceptor-specific nuclear receptor (Homo sapiens, UniProt Q9Y5X4); assay type: functional, cell-based;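 further: CHO-S cells with Gal4-NCOR and VP16-NR2E3 two-hybrid luciferase reporter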
[19] = target: Bcl-2-like protein 10 (Homo sapiens, UniProt Q9HD36); assay: Concentration-response of Bcl-B inhibitors by biochemical FP with TR3 (AID 1243); assay type: functional
[20] = target: Cytochrome P450 2C19 (Homo sapiens, UniProt P33261); assay: qHTS Assay for Inhibitors and Substrates of Cytochrome P450 2C19. [Related pubchem assays: 410 ]; assay type: ADME; conditions: read-out: Potency
[21] = target: Cytochrome P450 2D6 (Homo sapiens, UniProt P10635); assay: qHTS Assay for Inhibitors and Substrates of Cytochrome P450 2D6. [Related pubchem assays: 410 ]; assay type: ADME; conditions: read-out: Potency
[22] = target: Peroxisome proliferator-activated receptor gamma/Nuclear receptor coactivator 3 (Homo sapiens, UniProt P37231); assay type: functional;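 further: agonist potency for raising coactivator recruitment to the receptor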
[23] = target: Peroxisome proliferator-activated receptor gamma/Nuclear receptor coactivator 1 (Homo sapiens, UniProt P37231); assay type: functional;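 further: agonist potency as compounds enhance coactivator SRC-1 recruitment to PPARgamma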
[24] = target: T4, Endoribonuclease toxin MazF (Escherichia coli K-12, UniProt P0AE70); assay: activation of MazEF endoribonuclease cleavage – biochemical, fluorescence, single-stranded RNA substrate, uHTS hits, dose response (AID 588481); assay type: functional
T4 sequence (P0AE70 whole entry): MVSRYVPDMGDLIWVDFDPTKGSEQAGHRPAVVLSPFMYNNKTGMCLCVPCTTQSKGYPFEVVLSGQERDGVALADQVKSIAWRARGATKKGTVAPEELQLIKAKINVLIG

[25] = Luminescence Cell-Based Dose Retest to Confirm Inhibitors of Cancer Stem Cells. [Related pubchem assays (depositor defined):AID2717, AID2721]; assay type: functional; conditions: Homo sapiens
[26] = target: T4, Endoribonuclease toxin MazF; assay: substrate-only fluorescence increase artefacts – biochemical, single-stranded RNase substrate, counter-screen for MazEF activator project, dose response (AID 588502); assay type: functional
[27] = target: Peroxisome proliferator-activated receptor gamma/Nuclear receptor coactivator 2 (Homo sapiens, UniProt P37231); assay type: functional;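 further: agonist potency for raising coactivator recruitment to the receptor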
[28] = luciferase reporter signal reduction – luminescence, H4-C neuroglioblastoma cells, dose response (AID 2458); assay type: functional, cell-based;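 further: H4 neuroglioblastoma cells stably carrying a luciferase reporter gene fusion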
[29] = alpha-synuclein stem-loop translation blockers – luminescence, H4 neuroglioblastoma cells, dose confirmation, confirmation (AID 2454); assay type: functional, cell-based;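 further: H4 neuroglioblastoma cells carrying an alpha-synuclein 5'UTR luciferase reporter; potency for inhibition of the luciferase signal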
[30] = cells; assay type: functional, cell-based
[31] = test system: Streptococcus sp. 'group A'; assay: Streptococcus pyogenes SK(-)GAS viability under kanamycin – luminescence, BacTiterGlo, confirmation, counter-screen for streptokinase expression inhibitor project, dose response (AID 1900); assay type: functional, organism-based
[32] = target: T5, Streptokinase A (Streptococcus pyogenes serotype M1, UniProt P10520); assay: viability-normalized secreted streptokinase activity reduction – plasminogen activation absorbance, OD405, dose response (AID 1914); assay type: functional, Streptococcus pyogenes M1 GAS;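 further: secreted streptokinase activity via plasminogen activation per viability signal from cell pellet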
T5 sequence (P10520 whole entry): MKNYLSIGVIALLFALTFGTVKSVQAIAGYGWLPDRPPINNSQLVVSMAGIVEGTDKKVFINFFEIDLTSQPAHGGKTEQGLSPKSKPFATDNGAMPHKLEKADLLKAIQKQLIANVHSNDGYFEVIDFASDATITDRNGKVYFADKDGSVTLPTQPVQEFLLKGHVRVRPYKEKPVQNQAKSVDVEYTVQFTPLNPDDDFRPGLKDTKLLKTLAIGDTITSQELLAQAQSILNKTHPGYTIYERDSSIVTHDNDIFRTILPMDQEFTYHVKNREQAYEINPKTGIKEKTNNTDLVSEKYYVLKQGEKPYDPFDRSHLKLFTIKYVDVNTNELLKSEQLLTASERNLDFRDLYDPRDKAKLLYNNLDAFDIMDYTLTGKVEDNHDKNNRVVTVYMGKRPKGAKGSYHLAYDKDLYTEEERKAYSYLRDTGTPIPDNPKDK

[33] = target: NS3 (Hepatitis C virus, UniProt A3EZJ3); assay: PubChem AID 2173; parameters: species or system Hepacivirus hominis
[34] = test system: Streptococcus; assay: GAS UMAA2166 growth inhibition – luminescence, BacTiterGlo, counter-screen for streptokinase expression inhibitor project, dose response (AID 1915); assay type: functional, organism-based;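 further: potency for reduction of bacterial viability or growth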

Chain of Bcl-2-like protein 10 (Q9HD36 whole entry): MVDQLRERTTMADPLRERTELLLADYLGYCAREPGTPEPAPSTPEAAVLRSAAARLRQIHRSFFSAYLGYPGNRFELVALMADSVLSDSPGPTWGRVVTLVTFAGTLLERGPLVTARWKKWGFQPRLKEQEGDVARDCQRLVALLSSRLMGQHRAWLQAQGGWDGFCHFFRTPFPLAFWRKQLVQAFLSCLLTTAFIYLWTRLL
Chain of NS3 (A3EZJ3 whole entry): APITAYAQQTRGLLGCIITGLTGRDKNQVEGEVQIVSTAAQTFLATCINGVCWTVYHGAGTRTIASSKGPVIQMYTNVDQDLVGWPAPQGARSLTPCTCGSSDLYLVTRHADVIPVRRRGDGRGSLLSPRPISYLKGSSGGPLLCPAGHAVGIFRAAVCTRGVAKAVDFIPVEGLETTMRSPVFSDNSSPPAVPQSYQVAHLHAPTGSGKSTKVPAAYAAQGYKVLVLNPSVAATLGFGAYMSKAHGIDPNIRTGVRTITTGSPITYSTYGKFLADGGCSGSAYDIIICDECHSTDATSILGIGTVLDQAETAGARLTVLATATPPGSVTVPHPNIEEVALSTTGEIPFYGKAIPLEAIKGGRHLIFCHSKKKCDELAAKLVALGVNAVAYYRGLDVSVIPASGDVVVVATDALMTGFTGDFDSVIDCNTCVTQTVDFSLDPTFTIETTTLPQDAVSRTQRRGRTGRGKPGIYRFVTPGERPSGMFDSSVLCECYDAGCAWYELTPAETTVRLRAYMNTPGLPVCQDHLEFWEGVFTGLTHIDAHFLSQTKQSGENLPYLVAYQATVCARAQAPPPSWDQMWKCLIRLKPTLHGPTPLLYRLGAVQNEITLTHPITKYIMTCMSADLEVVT
Chain of Cytochrome P450 2D6 (P10635 whole entry): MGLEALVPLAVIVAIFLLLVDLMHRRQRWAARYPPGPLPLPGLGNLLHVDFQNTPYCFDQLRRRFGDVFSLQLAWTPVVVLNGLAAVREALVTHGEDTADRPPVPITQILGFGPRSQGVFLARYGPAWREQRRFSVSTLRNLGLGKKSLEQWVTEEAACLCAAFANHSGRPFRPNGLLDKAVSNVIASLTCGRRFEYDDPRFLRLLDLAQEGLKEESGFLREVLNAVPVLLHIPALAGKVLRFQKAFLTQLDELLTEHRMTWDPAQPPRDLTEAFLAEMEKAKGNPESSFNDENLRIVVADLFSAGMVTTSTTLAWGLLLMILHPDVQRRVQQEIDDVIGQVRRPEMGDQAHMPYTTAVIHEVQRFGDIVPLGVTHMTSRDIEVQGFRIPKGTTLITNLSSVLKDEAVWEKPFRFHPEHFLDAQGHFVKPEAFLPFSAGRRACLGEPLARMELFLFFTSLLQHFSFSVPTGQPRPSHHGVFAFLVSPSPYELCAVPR
Chain of Galanin receptor type 2 (O43603 whole entry): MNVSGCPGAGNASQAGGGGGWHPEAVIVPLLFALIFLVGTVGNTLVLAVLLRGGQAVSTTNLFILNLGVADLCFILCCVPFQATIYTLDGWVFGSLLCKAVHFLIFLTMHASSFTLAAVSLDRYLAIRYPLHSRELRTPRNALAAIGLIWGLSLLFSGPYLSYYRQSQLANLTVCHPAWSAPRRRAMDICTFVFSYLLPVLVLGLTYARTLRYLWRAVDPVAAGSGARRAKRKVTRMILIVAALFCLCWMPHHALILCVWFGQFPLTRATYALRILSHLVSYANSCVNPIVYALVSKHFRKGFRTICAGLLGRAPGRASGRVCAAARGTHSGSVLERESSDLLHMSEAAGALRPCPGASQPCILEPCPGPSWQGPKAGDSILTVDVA
Chain of Cytochrome P450 2C19 (P33261 whole entry): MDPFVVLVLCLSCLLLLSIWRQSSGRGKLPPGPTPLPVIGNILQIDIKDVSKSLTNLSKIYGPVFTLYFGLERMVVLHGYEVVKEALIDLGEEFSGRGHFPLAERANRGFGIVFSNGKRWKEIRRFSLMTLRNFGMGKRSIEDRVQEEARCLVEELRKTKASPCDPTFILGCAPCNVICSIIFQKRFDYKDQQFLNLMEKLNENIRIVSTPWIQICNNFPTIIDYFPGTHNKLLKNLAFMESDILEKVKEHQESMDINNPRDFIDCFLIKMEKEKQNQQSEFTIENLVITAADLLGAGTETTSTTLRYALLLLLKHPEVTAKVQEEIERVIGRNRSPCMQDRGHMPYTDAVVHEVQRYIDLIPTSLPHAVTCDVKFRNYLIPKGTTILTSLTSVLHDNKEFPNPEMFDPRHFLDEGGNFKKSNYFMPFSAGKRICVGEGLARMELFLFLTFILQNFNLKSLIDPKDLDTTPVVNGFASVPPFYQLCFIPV
Chain of Photoreceptor-specific nuclear receptor (Q9Y5X4 whole entry, the tested form may be a part): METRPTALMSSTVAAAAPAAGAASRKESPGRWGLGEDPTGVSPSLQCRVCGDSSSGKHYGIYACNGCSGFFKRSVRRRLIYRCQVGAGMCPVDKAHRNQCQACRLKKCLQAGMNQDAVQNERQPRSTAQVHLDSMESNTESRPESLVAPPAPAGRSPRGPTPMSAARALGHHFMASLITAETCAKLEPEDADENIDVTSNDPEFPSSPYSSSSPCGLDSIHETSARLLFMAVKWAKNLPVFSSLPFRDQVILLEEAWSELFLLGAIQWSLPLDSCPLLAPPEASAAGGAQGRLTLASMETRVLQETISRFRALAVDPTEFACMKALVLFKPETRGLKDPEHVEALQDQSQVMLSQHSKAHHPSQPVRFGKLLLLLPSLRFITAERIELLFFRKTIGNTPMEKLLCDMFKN
Chain of Protein Wnt-3a (P27467 whole entry): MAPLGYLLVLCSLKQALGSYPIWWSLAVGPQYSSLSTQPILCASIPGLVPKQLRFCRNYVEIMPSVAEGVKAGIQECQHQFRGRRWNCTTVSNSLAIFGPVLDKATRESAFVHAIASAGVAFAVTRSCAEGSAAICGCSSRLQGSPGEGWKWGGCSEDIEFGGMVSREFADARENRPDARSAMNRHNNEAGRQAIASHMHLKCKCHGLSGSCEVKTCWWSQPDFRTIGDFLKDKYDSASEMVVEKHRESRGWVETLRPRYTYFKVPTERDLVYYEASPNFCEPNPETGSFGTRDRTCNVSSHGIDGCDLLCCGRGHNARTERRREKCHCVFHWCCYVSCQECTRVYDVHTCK
Chain of G2/mitotic-specific cyclin-B1 (P14635 whole entry): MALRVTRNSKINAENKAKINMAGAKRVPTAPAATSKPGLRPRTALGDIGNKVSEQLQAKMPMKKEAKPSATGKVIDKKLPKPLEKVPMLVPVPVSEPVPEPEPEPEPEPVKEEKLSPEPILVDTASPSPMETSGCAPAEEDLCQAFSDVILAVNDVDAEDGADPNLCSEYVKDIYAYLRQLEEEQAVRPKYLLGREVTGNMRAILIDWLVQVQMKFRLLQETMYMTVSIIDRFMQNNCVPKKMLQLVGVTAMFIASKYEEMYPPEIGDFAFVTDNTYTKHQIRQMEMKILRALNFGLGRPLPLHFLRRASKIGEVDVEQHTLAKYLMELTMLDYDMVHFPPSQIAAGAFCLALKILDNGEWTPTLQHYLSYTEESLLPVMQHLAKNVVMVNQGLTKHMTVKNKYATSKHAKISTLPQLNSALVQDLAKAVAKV
Chain of Luciferin 4-monooxygenase (P08659 whole entry): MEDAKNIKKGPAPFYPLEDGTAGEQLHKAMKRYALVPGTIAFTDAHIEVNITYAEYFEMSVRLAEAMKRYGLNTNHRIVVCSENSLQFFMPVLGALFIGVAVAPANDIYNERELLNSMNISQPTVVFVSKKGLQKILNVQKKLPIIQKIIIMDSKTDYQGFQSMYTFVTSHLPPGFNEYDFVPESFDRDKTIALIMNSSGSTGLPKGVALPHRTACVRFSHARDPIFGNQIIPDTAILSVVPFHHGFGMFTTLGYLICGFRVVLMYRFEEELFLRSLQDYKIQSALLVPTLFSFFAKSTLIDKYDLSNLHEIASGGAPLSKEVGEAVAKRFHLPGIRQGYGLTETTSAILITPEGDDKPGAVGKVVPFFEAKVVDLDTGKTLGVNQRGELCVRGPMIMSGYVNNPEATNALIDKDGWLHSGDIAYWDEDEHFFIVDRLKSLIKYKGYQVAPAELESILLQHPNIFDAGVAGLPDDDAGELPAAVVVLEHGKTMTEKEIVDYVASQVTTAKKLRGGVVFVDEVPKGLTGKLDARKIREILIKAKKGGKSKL
Chain of Wee1-like protein kinase (P30291 whole entry): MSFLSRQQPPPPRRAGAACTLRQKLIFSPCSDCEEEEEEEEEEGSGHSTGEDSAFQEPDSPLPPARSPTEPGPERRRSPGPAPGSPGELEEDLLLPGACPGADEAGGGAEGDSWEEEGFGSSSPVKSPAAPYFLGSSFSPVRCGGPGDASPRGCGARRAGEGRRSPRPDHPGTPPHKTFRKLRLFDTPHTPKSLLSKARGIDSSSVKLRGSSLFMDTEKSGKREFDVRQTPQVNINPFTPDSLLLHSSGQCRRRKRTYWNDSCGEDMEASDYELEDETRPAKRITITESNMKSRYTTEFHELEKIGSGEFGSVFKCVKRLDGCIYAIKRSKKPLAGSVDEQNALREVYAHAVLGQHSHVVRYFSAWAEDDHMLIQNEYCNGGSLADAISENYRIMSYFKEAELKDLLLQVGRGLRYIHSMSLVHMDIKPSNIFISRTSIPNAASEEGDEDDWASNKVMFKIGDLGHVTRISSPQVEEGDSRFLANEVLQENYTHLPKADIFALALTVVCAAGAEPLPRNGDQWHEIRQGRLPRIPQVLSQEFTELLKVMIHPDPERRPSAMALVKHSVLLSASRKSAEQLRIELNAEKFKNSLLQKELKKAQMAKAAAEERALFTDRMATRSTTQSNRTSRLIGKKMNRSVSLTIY

Compound: CC1CCN(c2c(NCc3ccc(C(=O)N4c5ccccc5CC4C)cc3)c(=O)c2=O)CC1 (configuration not stated)
- IC50 [1]: 17.6 µM (not active)
- IC50 [2]: 2.98 µM (active)
- IC50 [3]: > 80 µM (inactive)
- IC50 [4]: 16.4 µM (active)

Compound: O=C(Nc1ccc([N+](=O)[O-])cc1)c1cc2ccccc2nc1Cl
- CC50 [5]: > 40 µM (active)

Compound: Cc1cc(Cl)ccc1N=C(S)Nc1ccccn1
- EC50 [6]: > 49.7 µM (not active)
- EC50 [7]: > 49.7 µM (not active)

Compound: Cc1cc(C(=O)CSc2nc3ccccc3[nH]2)c(C)n1CC1CCCO1 (configuration not stated)
- EC50 [8]: > 100 µM (not active)
- EC50 [9]: 8.51 µM (active)
- IC50 [10]: > 35 µM (not active)
- IC50 [11]: 0.874 µM (active)
- EC50 [12]: > 50 µM (not active)
- IC50 [13]: > 35 µM (not active)
- EC50 [14]: 4.95 µM (active)
- IC50 [15]: > 42 µM (not active)
- EC50 [16]: 7.29 µM (inconclusive)
- IC50 [17]: 1.2 µM (active)
- IC50 [18]: 11.7 µM (inactive)

Compound: Oc1ccc(Nc2nc(-c3ccccn3)cs2)cc1
- EC50 [19]: 3.69 µM (active)

Compound: CCN(CC)[C@@H](C)C(=O)N1c2ccccc2Sc2ccccc21
- AC50 [20]: 31.6 µM (inconclusive)
- AC50 [21]: 20 µM (inconclusive)

Compound: Cn1c(/C(C#N)=C(\O)COc2ccc3ccccc3c2)nc2ccccc21
- EC50 [22]: > 79.4 µM (not active)
- EC50 [23]: > 79.4 µM (not active)
- EC50 [24]: > 99 µM (inactive)
- AC50 [25]: < 0.16 µM (active)
- EC50 [26]: > 99 µM (inactive)
- EC50 [27]: > 79.4 µM (not active)

Compound: O=Cc1cn(Cc2ccccc2F)c2ccccc12
- EC50 [28]: 3.85 µM (active)
- EC50 [14]: < 0.1 µM (active)
- EC50 [16]: 14 µM (active)
- EC50 [29]: 2.11 µM (active)
- EC50 [30]: 1.75 µM (active)

Compound: CCCCCCCCCc1nc2sc3c(c2c(=O)n1NC(=O)c1ccccc1[N+](=O)[O-])CC(C)(C)OC3
- EC50 [31]: 1.73 µM (active)
- AC50 [25]: 0.843 µM (active)
- EC50 [32]: 2.23 µM (active)
- IC50 [33]: 11.2 µM (not active)
- EC50 [34]: 63.4 µM (active)
